{"source": "patent US20110111021A1", "about": "“PHARMACEUTICAL PREPARATION” (HANALL BIOPHARMA CO., LTD., priority 2008, published 2011)", "key": {"[1]": {"conditions": "concurrent administration of aliskiren and atorvastatin; cited from earlier work"}, "[2]": {"experiment": "Pharmacokinetic evaluation of aliskiren and atorvastatin in rats (animal test)", "type": "in vivo", "conditions": "SD rats, oral, once a day for 8 days", "experimental": "As an experiment to confirm the effects of the invention, an animal test was carried out as follows, in order to confirm the effects of conventional combined administration and inventive chronotherapeutic administration of pharmacologically active ingredients, aliskiren as a renin inhibitor and atorvastatin as an HMG-CoA reductase inhibitor.\n1) Title: Pharmacokinetic evaluation of aliskiren and atorvastatin in a hypertensive animal model.\n2) Object: It is intended to verify through the chronotherapeutic administration-based pharmacokinetic changes the fact that the problem of pharmacokinetic interaction between different drugs upon simultaneous administration of drug groups metabolized by the same hepatic enzyme can be solved by controlled release of the drugs.\n1. Test group: Animals were grouped into two groups (n=6), a group receiving simultaneous administration of aliskiren/atorvastatin, and a group receiving chronotherapeutic administration of aliskiren/atorvastatin.\n2. Administration route: Forced intragastric administration via an oral sonde.\n3. […]\n5. Administration volume: 5 mL/kg based on the body weight of animals measured on the day of administration. […]"}, "[3]": {"tested_on": "hepatic enzyme cytochrome P450", "conditions": "cited from earlier work"}, "cytochrome P450 3A4": {"target": "cytochrome P450 3A4 (Homo sapiens, UniProt P08684)", "sequence (P08684 whole entry, species assumed)": "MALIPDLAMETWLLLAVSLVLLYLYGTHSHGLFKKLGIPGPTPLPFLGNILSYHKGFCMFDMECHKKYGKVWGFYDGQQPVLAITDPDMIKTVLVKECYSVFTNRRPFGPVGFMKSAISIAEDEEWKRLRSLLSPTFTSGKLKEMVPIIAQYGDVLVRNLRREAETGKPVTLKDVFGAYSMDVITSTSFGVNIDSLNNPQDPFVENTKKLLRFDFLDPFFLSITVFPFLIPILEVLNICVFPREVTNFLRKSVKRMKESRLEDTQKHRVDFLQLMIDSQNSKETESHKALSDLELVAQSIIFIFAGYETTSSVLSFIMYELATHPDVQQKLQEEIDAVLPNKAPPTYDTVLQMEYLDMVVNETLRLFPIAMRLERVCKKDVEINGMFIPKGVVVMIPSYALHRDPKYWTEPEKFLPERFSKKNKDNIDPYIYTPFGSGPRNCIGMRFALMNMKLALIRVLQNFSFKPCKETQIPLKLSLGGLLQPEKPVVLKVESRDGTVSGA", "conditions": "in vitro experiments; cited from earlier work"}, "[4]": {"conditions": "cited from earlier work"}}}
{"smiles": "COCCCOc1cc(C[C@@H](C[C@H](N)[C@@H](O)C[C@H](C(=O)NCC(C)(C)C(N)=O)C(C)C)C(C)C)ccc1OC", "note": "[aliskiren, 2(S),4(S),5(S),7(S)-N-(3-amino-2,2-dimethyl-3-oxopropyl)-2,7-di(1-methylethyl)-4-hydroxy-5-amino-8-[4-methoxy-3-(3-methoxy-propoxy)phenyl]-octanamide]", "values": [{"measurement": "increase in blood aliskiren level", "setting": "[1]", "result": 50, "unit": "%"}, {"measurement": "blood level of aliskiren compared to the single administration group", "setting": "[2]; aliskiren 300 mg/kg and atorvastatin 80 mg/kg simultaneously", "result": "significant increase"}, {"measurement": "blood aliskiren level compared to the single administration group", "setting": "[2]; aliskiren 300 mg/kg given 4 hours after atorvastatin 80 mg/kg (chronotherapeutic)", "result": "equivalent to that of the single administration group"}, {"measurement": "inhibition or induction of hepatic enzyme cytochrome P450", "setting": "[3]", "result": "does not inhibit or induce"}, {"measurement": "metabolism by cytochrome P450 3A4", "setting": "cytochrome P450 3A4", "result": "metabolized by cytochrome P450 3A4"}, {"measurement": "bioavailability", "setting": "[4]; in vivo", "result": "≤ 2", "unit": "%"}, {"measurement": "half-life", "setting": "[4]; in vivo", "result": 24, "unit": "h"}, {"measurement": "decrease in bioavailability", "setting": "[4]; when high-fat diet is ingested", "result": 71, "unit": "%"}, {"measurement": "decrease in peak blood level", "setting": "[4]; when high-fat diet is ingested", "result": 85, "unit": "%"}]}
{"smiles": "COc1ccc(C[C@H](NC(=O)CC(C)(C)N)C(=O)N[C@@H](Cc2cnc[nH]2)C(=O)N[C@@H](CC2CCCCC2)[C@@H](O)[C@@H](O)CC(C)C)cc1", "note": "[enalkiren]", "values": [{"measurement": "bioavailability (in words)", "setting": "[4]; in vivo", "result": "low"}, {"measurement": "half-life (in words)", "setting": "[4]; in vivo", "result": "short"}]}
{"smiles": "CC(C)(C)S(=O)(=O)C[C@@H](Cc1ccccc1)C(=O)N[C@@H](Cc1cnc[nH]1)C(=O)N[C@@H](CC1CCCCC1)[C@@H](O)[C@@H](O)C1CC1", "note": "[remikiren]", "values": [{"measurement": "bioavailability (in words)", "setting": "[4]; in vivo", "result": "low"}, {"measurement": "half-life (in words)", "setting": "[4]; in vivo", "result": "short"}]}
{"smiles": "CC(C)C[C@H](O)[C@H](O)[C@H](CC1CCCCC1)NC(=O)[C@H](Cc1cscn1)NC(=O)[C@H](Cc1ccccc1)CS(=O)(=O)N1CCN(C)CC1", "note": "[zankiren]", "values": [{"measurement": "bioavailability (in words)", "setting": "[4]; in vivo", "result": "low"}, {"measurement": "half-life (in words)", "setting": "[4]; in vivo", "result": "short"}]}
